In patent US6774235B2, “Trisubstituted 1,3,5-triazine derivatives” (Janssen Pharmaceutica N.V., priority 1998, dated 2004):

Key:
HIV-1 (wildtype IIIB) = assay: microbe, parasite or virus in culture; format: cell-based; details: Human immunodeficiency virus 1, MT4; dose achieving 50% protection of HIV-1 (IIIB) infected MT-4 cells, MTT, OD 540 nm
Method: (§1) A rapid, sensitive and automated assay procedure was used for the in vitro evaluation of anti-HIV agents. An HIV-1 (wildtype IIIB) transformed T4-cell line, MT-4, which was previously shown (Koyanagi et al., Int. J Cancer, 36, 445-451, 1985) to be highly susceptible to and permissive for HIV infection, served as the target cell line. Inhibition of the HIV-induced cytopathic effect was used as the end point. […] The percent protection achieved by the compound in HIV-infected cells was calculated by the following formula: [formula]
(§2) whereby (ODT)HIV is the optical density measured with a given concentration of the test compound in HIV-infected cells; (ODC)HIV is the optical density measured for the control untreated HIV-infected cells; (ODC)MOCK is the optical density measured for the control untreated mock-infected cells; all optical density values were determined at 540 nm. […] The ratio of CC50 to IC50 was defined as the selectivity index (SI).

[1] = Cytotoxicity in mock-infected MT-4 cells (MTT); details: human, mock-infected MT-4 cells
Method: as §1, §2

| Structure (SMILES) | IC50 (HIV-1 (wildtype IIIB)) | CC50 [1] |
| --- | --- | --- |
| Cc1cc(Br)cc(Cl)c1Oc1nc(N)nc(Nc2ccc(C#N)cc2)n1 [Compound 33, 4-[[4-amino-6-(4-bromo-2-chloro-6-methylphenoxy)-1,3,5-triazin-2-yl]amino]benzonitrile] | 2 nM | > 10 µM |
| CC(=O)c1cc(C)c(Oc2nc(N)nc(Nc3ccc(C#N)cc3)n2)c(C)c1 [Compound 35, 4-[[4-(4-acetyl-2,6-dimethylphenoxy)-6-amino-1,3,5-triazin-2-yl]amino]benzonitrile] | 1 nM | 32.1 µM |
| N#Cc1ccc(Nc2nc(N)nc(Oc3c(Br)cc(Br)cc3Br)n2)cc1 [Compound 40, 4-[[4-amino-6-(2,4,6-tribromophenoxy)-1,3,5-triazin-2-yl]amino]benzonitrile] | 5 nM | > 10 µM |
| Cc1cc([N+](=O)[O-])cc(C)c1Oc1nc(N)nc(Nc2ccc(C#N)cc2)n1 [Compound 41, 4-[[4-amino-6-(4-nitro-2,6-dimethylphenoxy)-1,3,5-triazin-2-yl]amino]benzonitrile] | 2 nM | 12.2 µM |
| N#Cc1ccc(Nc2nc(N)nc(Oc3cccc4[nH]ccc34)n2)cc1 [Compound 83] | 473 nM | 59.6 µM |

Further molecules by falling IC50 (HIV-1 (wildtype IIIB)), results first:

| IC50 (HIV-1 (wildtype IIIB)) | Structure (SMILES) | CC50 [1] |
| --- | --- | --- |
| 10 nM | N#Cc1ccc(Nc2nc(N)nc(Nc3c(Cl)cc(Cl)cc3C(F)(F)F)n2)cc1 [Compound 71, 4-[[4-amino-6-[[2,4-dichloro-6-(trifluoromethyl)phenyl]amino]-1,3,5-triazin-2-yl]-amino]benzonitrile] | 8.2 µM |
| 4 nM | N#Cc1ccc(Nc2nc(N)nc(Sc3ccc(Cl)cc3Cl)n2)cc1 [Compound 54, 4-[[4-amino-6-[(2,4-dichlorophenyl)thio]-1,3,5-triazin-2-yl]amino]benzonitrile] | 57.3 µM |
| 3 nM | Cc1cc(Br)cc(Cl)c1Nc1nc(N)nc(Nc2ccc(C#N)cc2)n1 [Compound 63, 4-[[4-amino-6-[(4-bromo-2-chloro-6-methylphenyl)amino]-1,3,5-triazin-2-yl]amino]-benzonitrile] | 48 µM |
| 3 nM | CC(C)c1cc(Br)c(Nc2nc(N)nc(Nc3ccc(C#N)cc3)n2)c(Br)c1 [Compound 77, 4-[[4-amino-6-[[2,6-dibromo-4-(1-methylethyl)phenyl]amino]-1,3,5-triazin-2-yl]-amino]benzonitrile] | 47 µM |
| 1 nM | Cc1cc(C)c(Nc2nc(N)nc(Nc3ccc(C#N)cc3)n2)c(Cl)c1 [Compound 65, 4-[[4-amino-6-[(2-chloro-4,6-dimethylphenyl)amino]-1,3,5-triazin-2-yl]amino]-benzonitrile] | 48.5 µM |
| 1 nM | CC(=O)c1cc(C)c2c(c1Oc1nc(N)nc(Nc3ccc(C#N)cc3)n1)CCC2 [Compound 84, 4-[[4-[(5-acetyl-2,3-dihydro-7-methyl-1H-inden-4-yl)oxy]-6-amino-1,3,5-triazin-2-yl]amino]benzonitrile] | 54.1 µM |
